Experimental data taken from patent publication US20060045953A1 (priority 2004, published 2006).

Biological target: T1, hT1R1/hT1R3 umami receptor (Homo sapiens, UniProt Q7RTX0+Q7RTX1)
T1 construct: expressed in transfected cells; host or cells: HEK293 derivative stably expressing Gα15, clone I-17, expression induced with mifepristone
T1 sequence (Q7RTX1 21-841): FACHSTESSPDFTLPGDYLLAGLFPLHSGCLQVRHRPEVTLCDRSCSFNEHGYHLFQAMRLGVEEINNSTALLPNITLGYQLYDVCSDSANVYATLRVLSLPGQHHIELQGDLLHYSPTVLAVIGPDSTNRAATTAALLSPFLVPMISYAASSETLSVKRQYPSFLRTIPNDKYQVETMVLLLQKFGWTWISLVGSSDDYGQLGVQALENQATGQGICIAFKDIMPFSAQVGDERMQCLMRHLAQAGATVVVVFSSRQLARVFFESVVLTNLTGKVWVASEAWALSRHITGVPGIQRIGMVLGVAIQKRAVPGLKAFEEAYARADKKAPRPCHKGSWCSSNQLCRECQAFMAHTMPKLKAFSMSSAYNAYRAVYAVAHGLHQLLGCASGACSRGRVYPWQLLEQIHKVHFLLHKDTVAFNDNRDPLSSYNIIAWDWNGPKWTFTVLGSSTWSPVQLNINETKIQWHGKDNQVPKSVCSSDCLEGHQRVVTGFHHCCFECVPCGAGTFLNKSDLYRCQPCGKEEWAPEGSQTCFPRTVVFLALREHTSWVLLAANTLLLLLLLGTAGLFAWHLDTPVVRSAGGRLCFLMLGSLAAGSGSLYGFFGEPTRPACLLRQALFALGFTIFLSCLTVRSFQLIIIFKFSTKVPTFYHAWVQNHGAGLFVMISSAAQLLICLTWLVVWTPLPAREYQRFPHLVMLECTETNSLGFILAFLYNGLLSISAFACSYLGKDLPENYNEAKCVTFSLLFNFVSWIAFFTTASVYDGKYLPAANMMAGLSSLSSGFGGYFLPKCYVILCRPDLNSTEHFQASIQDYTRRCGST
T1 sequence (Q7RTX0 21-852): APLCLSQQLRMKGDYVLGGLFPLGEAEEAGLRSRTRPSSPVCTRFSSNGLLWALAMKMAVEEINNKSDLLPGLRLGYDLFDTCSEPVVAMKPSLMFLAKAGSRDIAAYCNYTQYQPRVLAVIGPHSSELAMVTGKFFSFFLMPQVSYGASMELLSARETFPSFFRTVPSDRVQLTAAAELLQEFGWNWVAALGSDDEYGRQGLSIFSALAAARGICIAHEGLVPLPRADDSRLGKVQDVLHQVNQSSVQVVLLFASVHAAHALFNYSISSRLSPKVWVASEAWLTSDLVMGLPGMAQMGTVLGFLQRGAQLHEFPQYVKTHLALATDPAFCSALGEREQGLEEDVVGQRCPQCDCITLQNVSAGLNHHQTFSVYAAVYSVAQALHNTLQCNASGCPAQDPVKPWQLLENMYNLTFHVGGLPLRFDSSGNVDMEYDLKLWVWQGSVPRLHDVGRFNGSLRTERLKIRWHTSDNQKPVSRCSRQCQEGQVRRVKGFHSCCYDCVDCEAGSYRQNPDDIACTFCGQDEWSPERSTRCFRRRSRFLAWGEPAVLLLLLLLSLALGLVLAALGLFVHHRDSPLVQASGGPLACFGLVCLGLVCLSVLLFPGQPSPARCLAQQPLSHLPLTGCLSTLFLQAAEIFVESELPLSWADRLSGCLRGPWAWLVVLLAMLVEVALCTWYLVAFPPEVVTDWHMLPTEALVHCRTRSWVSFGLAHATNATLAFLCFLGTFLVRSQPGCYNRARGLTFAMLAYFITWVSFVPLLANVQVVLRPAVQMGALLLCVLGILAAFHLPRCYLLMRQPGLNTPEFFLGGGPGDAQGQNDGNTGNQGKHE
Assay: In vitro hT1R1/hT1R3 umami taste receptor activation assay (FLIPR, dose response)
Type: cell-based
Settings: read-out: EC50 for activation of a hT1R1/hT1R3 umami receptor expressed in an HEK293 cell line
From the text: In order to identify new savory flavoring agents and enhancers, including compounds with savory agonist and enhancer activities (dual activity), the compounds of Formula (I) were screened in primary assays and secondary assays including compound dose response and enhancement assay. In a primary assay for potential ability to modulate umami taste, amide compounds of Formula (I) that can be either savory flavoring agents in their own right or flavor enhancers of MSG are identified and scores of their activities are given as percentage of the maximum MSG intensity (%). In compound dose response, an EC50 is calculated to reflect the potency of the compound as a savory agonist or enhancer.
An HEK293 cell line derivative (See e.g., Chandrashekar, et al., Cell (2000) 100: 703-711) which stably expresses Gα15 and hT1R1/hT1R3 under an inducible promoter (see WO 03/001876 A2) was used to identify compounds with savory tasting properties.
For dose-responses analysis, stimuli were presented in duplicates at 10 different concentrations ranging from 1.5 nM to 30 μM. Activities were normalized to the response obtained with 60 mM monosodium glutamate, a concentration that elicits maximum receptor response. […] Identical results were obtained when analyzing the dose-response data using commercially available software for non-linear regression analysis such as GraphPad PRISM (San Diego, Calif.).

Row | SMILES | EC50
1 | COc1ccc(C(=O)N[C@H](C)c2ccccc2)cc1Cl [Example 63, (R)-3-chloro-4-methoxy-N-(1-phenylethyl)benzamide] | 2500 nM
2 | COC(=O)[C@@H](CC(C)C)NC(=O)c1ccc(SC)cc1OC [Example 74, (R)-methyl 2-(2-methoxy-4-(methylthio)benzamido)-4-methylpentanoate] | 15800 nM
3 | CCC(CC)NC(=O)/C=C/c1ccc(OCCO)cc1 [Example 76, N-(1-Ethyl-propyl)-3-[4-(2-hydroxy-ethoxy)-phenyl]-acrylamide] | 5800 nM
4 | CCCC(CC(C)C)NC(=O)/C=C/c1ccc(OC)cc1 (stereo not drawn) [Example 79, 3-(4-Methoxy-phenyl)-N-(3-methyl-1-propyl-butyl)-acrylamide] | 1840 nM
5 | COc1ccc(/C=C/C(=O)N[C@@H](CO)Cc2ccccc2)cc1 [Example 81, N-(1-Benzyl-2-hydroxy-ethyl)-3-(4-methoxy-phenyl)-acrylamide] | 1100 nM
6 | CCOc1ccc(/C=C/C(=O)NC(CC)CC)cc1 [Example 82, 3-(4-Ethoxy-phenyl)-N-(1-ethyl-propyl)-acrylamide] | 1350 nM
7 | CC(C)/C=C/C(=O)NC1CCCc2ccccc21 (stereo not drawn) [Example 84, 4-Methyl-pent-2-enoic acid (1,2,3,4-tetrahydro-naphthalen-1-yl)-amide] | 1500 nM
8 | COc1ccccc1/C=C/C(=O)NC1CCCCC1C (stereo not drawn) [Example 89, 3-(2-Methoxy-phenyl)-N-(2-methyl-cyclohexyl)-acrylamide] | 3400 nM
9 | CCCC(CCC)NC(=O)c1ccc2occc2c1 [Example 90, N-(heptan-4-yl)benzofuran-5-carboxamide] | 1190 nM
10 | CCCC(CCC)NC(=O)c1ccc(C)c(C)n1 [Example 91, N-(heptan-4-yl)-5,6-dimethylpicolinamide] | 2800 nM
11 | CCCC(CCC)NC(=O)c1ccc(N(CC)CC)cc1 [Example 92, 4-(diethylamino)-N-(heptan-4-yl)benzamide] | 7600 nM
12 | COC(=O)[C@@H](CC(C)C)NC(=O)c1cc(OC)nc(OC)c1 [Example 93, (R)-methyl 2-(2,6-dimethoxyisonicotinamido)-4-methylpentanoate] | 1910 nM
13 | CCCC(CCC)NC(=O)c1ccc(OC)nc1 [Example 94, N-(heptan-4-yl)-6-methoxynicotinamide] | 2660 nM
14 | CCCC(CCC)NC(=O)c1ccc(C)nc1Cl [Example 96, 2-chloro-N-(heptan-4-yl)-6-methylnicotinamide] | 3900 nM
15 | CCCC(CCC)NC(=O)c1ccc(OC)cc1C#N [Example 97, 2-cyano-N-(heptan-4-yl)-4-methoxybenzamide] | 1390 nM
16 | CCCC(CCC)NC(=O)c1cc(C)nn1C [Example 99, N-(heptan-4-yl)-1,3-dimethyl-1H-pyrazole-5-carboxamide] | 7800 nM
17 | CCCC(CCC)NC(=O)c1csc(C)n1 [Example 100, N-(heptan-4-yl)-2-methylthiazole-4-carboxamide] | 7200 nM
18 | CCCC(CCC)NC(=O)c1ccc2ncccc2c1 [Example 101, N-(heptan-4-yl)quinoline-6-carboxamide] | 3200 nM

Molecules with a lower EC50, results first:

Row | EC50 | SMILES
19 | 210 nM | CCCC(CCC)NC(=O)c1ccc(OCCOC)c(C)c1 [Example 59, N-(heptan-4-yl)-4-(2-methoxyethoxy)-3-methylbenzamide]
20 | 300 nM | COC(=O)[C@@H](CC(C)C)NC(=O)c1ccc(OC)c(F)c1 [Example 60, (R)-methyl 2-(3-fluoro-4-methoxybenzamido)-4-methylpentanoate]
21 | 560 nM | CCC(CC)NC(=O)c1ccc(OC)c(Cl)c1 [Example 61, 3-chloro-4-methoxy-N-(pentan-3-yl)benzamide]
22 | 80 nM | COC(=O)[C@@H](CC(C)C)NC(=O)c1ccc(OC)c(Cl)c1 [Example 62, (R)-methyl 2-(3-chloro-4-methoxybenzamido)-4-methylpentanoate]
23 | 800 nM | CCCC(CCC)NC(=O)c1ccc(Cl)c(C)c1 [Example 64, 4-Chloro-3-methyl-N-(1-propyl-butyl)-benzamide]
24 | 360 nM | CCCC(CCC)NC(=O)c1ccc(OC)c(OC)c1 [Example 65, 3,4-Dimethoxy-N-(1-propyl-butyl)-benzamide]
25 | 320 nM | COC(=O)[C@@H](CC(C)C)NC(=O)c1ccc(F)c(C)c1 [Example 66, (R)-methyl 2-(4-fluoro-3-methylbenzamido)-4-methylpentanoate]
26 | 110 nM | CCCC(NC(=O)c1ccc(C)c(C)c1)C(C)C (stereo not drawn) [Example 68, 3,4-dimethyl-N-(2-methylhexan-3-yl)benzamide]
27 | 130 nM | CCCC(CC(C)C)NC(=O)c1ccc(C)c(C)c1 (stereo not drawn) [Example 69, 3,4-dimethyl-N-(2-methylheptan-4-yl)benzamide]
28 | 170 nM | CCC(CC(C)C)NC(=O)c1ccc(C)c(C)c1 (stereo not drawn) [Example 70, 3,4-dimethyl-N-(5-methylhexan-3-yl)benzamide]
29 | 1060 nM | COCOC[C@@H](CC(C)C)NC(=O)c1ccc(C)c(C)c1 [Example 72, (R)-N-(1-(methoxymethoxy)-4-methylpentan-2-yl)-3,4-dimethylbenzamide]
30 | 870 nM | COCC(NC(=O)c1ccc(C)c(C)c1)C(C)C (stereo not drawn) [Example 73, N-(1-Methoxymethyl-2-methyl-propyl)-3,4-dimethyl-benzamide]
31 | 240 nM | CCC(CC(C)C)NC(=O)/C=C/c1ccc(OC)cc1 (stereo not drawn) [Example 75]
32 | 440 nM | CCCC(CCC)NC(=O)/C=C/c1cccs1 [Example 77, (E)-N-(heptan-4-yl)-3-(thiophen-2-yl)acrylamide]
33 | 920 nM | CCCCC/C=C/C(=O)N[C@H](CC(C)C)C(=O)OC [Example 78, (R,E)-methyl 4-methyl-2-oct-2-enamidopentanoate]
34 | 900 nM | COC[C@@H](CC(C)C)NC(=O)/C=C/c1ccc(OC)cc1 [Example 80, N-(1-Methoxymethyl-3-methyl-butyl)-3-(4-methoxy-phenyl)-acrylamide]
35 | 590 nM | COC(=O)[C@@H](CC(C)C)NC(=O)/C=C/c1cccs1 [Example 83, 4-Methyl-2-(3-thiophen-2-yl-acryloylamino)-pentanoic acid methyl ester]
36 | 160 nM | CCCC(CCC)NC(=O)/C=C/c1ccccc1F [Example 85, 3-(2-Fluoro-phenyl)-N-(1-propyl-butyl)-acrylamide]
37 | 900 nM | CCCC(CCC)NC(=O)/C=C/c1ccccc1OC [Example 86, 3-(2-Methoxy-phenyl)-N-(1-propyl-butyl)-acrylamide]
38 | 970 nM | CCCC(CCC)NC(=O)/C=C/c1ccc(OC)c(OC)c1 [Example 87, 3-(3,4-Dimethoxy-phenyl)-N-(1-propyl-butyl)-acrylamide]
39 | 1010 nM | CCCC(CCC)NC(=O)c1cnc(C)c(C)n1 [Example 95, 5,6-dimethylpyrazine-2-carboxylic acid (1-propylbutyl)amide]
